Experimental data reported in patent publication US20120040897A1, “NOVEL DERIVATIVES OF ACYL CYANOPYRROLIDINES” (Sun Pharma Advanced Research Company Ltd., priority 2008, published 2012).

Key:
Type in all cases: biochemical
DPP9 = DPP9 (Homo sapiens, UniProt Q86TI2); assay: Percent inhibition of DPP9 activity; conditions: at 10000 nM concentration
Description: (§1) The following Table 39 gives percent inhibition DPP7, DPP8 & DPP9 activity, as determined for exemplary compounds of the invention

DPP7 = DPP7 (Homo sapiens, UniProt Q9UHL4); assay: Percent inhibition of DPP7 activity; conditions: at 10000 nM concentration
Description: as §1

DPP8 = DPP8 (Homo sapiens, UniProt Q6V1X1); assay: Percent inhibition of DPP8 activity; conditions: at 10000 nM concentration
Sequence of DPP8 (Q6V1X1 whole entry, species assumed): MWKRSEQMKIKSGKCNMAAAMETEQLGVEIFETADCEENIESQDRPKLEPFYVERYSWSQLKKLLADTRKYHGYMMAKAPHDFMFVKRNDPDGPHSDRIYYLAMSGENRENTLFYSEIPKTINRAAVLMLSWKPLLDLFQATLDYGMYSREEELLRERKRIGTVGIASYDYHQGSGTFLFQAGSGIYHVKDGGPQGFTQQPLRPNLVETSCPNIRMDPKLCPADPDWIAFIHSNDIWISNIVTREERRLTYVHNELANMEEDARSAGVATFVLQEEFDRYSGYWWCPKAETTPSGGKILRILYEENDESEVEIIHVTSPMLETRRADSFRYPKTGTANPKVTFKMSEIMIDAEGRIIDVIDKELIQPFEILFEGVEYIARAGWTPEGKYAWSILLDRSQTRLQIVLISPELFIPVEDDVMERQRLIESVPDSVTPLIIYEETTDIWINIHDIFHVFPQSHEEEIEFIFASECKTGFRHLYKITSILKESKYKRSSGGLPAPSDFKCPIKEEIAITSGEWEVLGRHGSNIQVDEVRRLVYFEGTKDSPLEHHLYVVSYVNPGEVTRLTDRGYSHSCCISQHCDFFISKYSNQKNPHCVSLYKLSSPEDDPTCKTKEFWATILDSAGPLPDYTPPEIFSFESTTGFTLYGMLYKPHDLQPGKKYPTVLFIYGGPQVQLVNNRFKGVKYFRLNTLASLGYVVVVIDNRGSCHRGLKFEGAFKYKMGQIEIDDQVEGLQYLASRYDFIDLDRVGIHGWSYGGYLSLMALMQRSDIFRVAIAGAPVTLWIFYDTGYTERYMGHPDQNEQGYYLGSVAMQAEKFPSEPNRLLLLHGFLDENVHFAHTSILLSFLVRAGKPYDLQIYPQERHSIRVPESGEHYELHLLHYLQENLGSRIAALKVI
Description: as §1

DPP IV = biological target: T1, DPP IV (Rattus norvegicus, UniProt P14740); assay: Invitro DPP4 inhibition assay in rat plasma; conditions: substrate Gly-Pro-AMC
T1 construct: from tissue; host or cells: rat plasma
T1 sequence (P14740 37-767 limits assumed): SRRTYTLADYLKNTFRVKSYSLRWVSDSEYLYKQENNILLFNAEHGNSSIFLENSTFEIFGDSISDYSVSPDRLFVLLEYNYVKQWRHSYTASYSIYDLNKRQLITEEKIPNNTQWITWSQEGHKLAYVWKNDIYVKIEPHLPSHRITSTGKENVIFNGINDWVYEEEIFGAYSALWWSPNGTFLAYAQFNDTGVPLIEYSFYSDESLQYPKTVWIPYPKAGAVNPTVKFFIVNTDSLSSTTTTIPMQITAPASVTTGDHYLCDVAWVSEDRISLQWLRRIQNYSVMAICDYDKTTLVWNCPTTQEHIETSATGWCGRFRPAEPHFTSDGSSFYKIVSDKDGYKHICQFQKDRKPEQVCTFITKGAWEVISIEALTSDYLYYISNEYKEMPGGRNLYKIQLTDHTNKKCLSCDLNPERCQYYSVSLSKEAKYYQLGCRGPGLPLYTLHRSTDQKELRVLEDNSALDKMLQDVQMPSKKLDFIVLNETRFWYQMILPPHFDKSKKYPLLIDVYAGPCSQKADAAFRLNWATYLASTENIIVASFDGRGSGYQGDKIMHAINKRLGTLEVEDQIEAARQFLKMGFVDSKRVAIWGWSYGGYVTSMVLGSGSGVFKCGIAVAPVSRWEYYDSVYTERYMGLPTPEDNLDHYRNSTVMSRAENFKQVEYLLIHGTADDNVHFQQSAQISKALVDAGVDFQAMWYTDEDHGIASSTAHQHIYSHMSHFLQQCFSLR
Method: The assay system comprises of […] of rat plasma, 20 mM MgCl2 test compound, 50 uM substrate Gly-Pro-AMC & buffer (25 mM HEPES, 140 mM NaCl, 1% BSA, pH 7.8) in a total reaction volume of 100 μl. The test compound was preincubated with plasma and MgCl2 for 10 minutes at 37° C. followed by further incubation of 20 minutes after addition of substrate. The experiment was repeated using vehicle as control. The AMC (7-Amino-4-Methylcoumarin) liberated in the samples was quantified in a Multilable counter at excitation wavelength 355 nm & emission wavelength 462 nm from a standard AMC plot. The DPP4 activity in each sample was represented as pmoles of AMC released/mg/min. Plasma protein was estimated by Lowry's method.

Sequence of DPP9 (Q86TI2 whole entry, species assumed): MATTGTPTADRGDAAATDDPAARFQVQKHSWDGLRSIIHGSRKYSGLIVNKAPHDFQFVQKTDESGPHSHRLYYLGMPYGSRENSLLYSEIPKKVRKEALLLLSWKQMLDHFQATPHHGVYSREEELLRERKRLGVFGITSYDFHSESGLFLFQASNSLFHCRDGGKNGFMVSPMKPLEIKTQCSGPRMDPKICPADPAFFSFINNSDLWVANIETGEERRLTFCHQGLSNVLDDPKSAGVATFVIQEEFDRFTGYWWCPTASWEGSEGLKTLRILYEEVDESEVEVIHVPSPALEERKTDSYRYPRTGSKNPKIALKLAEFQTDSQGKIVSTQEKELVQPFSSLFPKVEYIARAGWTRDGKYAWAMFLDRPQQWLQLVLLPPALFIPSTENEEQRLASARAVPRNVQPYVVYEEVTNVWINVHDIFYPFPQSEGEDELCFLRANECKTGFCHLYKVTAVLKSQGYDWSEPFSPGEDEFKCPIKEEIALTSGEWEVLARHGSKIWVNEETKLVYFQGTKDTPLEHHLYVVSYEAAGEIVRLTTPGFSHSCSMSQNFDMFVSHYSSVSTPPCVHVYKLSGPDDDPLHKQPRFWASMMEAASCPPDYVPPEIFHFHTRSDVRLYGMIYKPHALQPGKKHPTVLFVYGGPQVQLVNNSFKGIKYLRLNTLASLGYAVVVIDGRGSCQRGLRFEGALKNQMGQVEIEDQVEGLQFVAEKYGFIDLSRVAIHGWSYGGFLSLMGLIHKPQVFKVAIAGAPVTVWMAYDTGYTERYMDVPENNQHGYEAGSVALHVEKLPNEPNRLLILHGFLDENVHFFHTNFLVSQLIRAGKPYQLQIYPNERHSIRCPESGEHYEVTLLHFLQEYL

| SMILES | inhibition at 10 µM (DPP9) | inhibition at 10 µM (DPP7) | inhibition at 10 µM (DPP8) | IC50 (DPP IV) |
| --- | --- | --- | --- | --- |
| CC1(C)O[C@@H]2[C@@H](CO[C@@]3(CN4CCC(NCC(=O)N5CCC[C@H]5C#N)CC4)OC(C)(C)O[C@@H]23)O1 [Example 1, 2,3:4,5-di-O-isopropylidene-1-[piperidin-(4-aminoacetylpyrrolidine-2-(S)-carbonitrile}-1-yl]-1-deoxy-β-D-fructopyranose] | 29% | 0% | 18% | 5.98 nM |
| CC1(NCC(=O)N2CCC[C@H]2C#N)CCN(S(=O)(=O)OC[C@H]2O[C@@H]3OC(C)(C)O[C@@H]3[C@H]3OC(C)(C)O[C@H]32)CC1 [Example 112, 1,2:3,4-di-O-isopropylidene-6-[piperidin-{(4-aminoacetylpyrrolidine-2-(S)-carbonitrile)-4-methyl-1-sulfonyl}-1-yl]-D-galactopyranose] | – | – | – | 18.2 nM |
| CCOCCO[C@@H]1O[C@H](CN2CCC(C)(NCC(=O)N3CCC[C@H]3C#N)CC2)[C@H]2OC(C)(C)O[C@@H]12 [Example 123, 2,3-O-Isopropylidene-β-1-O-ethoxyethyl-5-[piperidin-{4-aminoacetylpyrrolidine-2-(S)-carbonitrile}(4-methyl)-1-yl]-5-deoxy-D-ribofuranose] | – | – | – | 14.3 nM |
| CC1(NCC(=O)N2CCC[C@H]2C#N)CCN(C[C@H]2O[C@@H]3OC(C)(C)O[C@@H]3[C@H]2O)CC1 [Example 135, 1,2-O-Isopropylidene-5-[4-methylpiperidin-{4-aminoacetylpyrrolidine-2-(S)-carbonitrile}-1-yl]-5-deoxy-α-D-xylofuranose] | – | – | – | 22.3 nM |
